Values quoted from earlier work in patent EP4813985A1, “PREPARATION OF QUINAZOLINONE DERIVATIVE AS KINASE INHIBITOR, AND USE THEREOF” (Xizang Haisco Pharmaceutical Co., Ltd., priority 2023, dated 2025).

Tests used:
[1] = reported in the background; cited from earlier work
BCRP = biological target: T1, BCRP (Homo sapiens, UniProt Q9UNQ0); details: reported in the background; cited from earlier work
T1 sequence (Q9UNQ0 1-655): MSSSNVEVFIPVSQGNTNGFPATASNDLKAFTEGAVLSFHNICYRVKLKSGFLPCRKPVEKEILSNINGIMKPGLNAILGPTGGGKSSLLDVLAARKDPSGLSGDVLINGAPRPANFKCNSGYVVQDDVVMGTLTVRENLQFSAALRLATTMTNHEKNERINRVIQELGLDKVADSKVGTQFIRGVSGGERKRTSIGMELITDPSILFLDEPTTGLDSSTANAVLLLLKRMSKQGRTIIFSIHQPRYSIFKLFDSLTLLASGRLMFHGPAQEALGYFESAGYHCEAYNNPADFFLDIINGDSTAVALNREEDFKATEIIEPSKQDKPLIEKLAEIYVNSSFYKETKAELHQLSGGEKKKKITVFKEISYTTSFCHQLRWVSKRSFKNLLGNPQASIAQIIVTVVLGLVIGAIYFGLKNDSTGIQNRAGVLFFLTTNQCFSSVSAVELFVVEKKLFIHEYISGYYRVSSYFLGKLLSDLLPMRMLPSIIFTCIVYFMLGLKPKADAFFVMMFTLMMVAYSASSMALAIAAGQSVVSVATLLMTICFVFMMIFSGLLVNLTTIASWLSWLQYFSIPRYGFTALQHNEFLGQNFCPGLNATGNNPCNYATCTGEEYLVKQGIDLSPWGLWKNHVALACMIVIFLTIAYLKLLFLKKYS

MDR1 = MDR1 (Homo sapiens, UniProt P08183); details: reported in the background; cited from earlier work
Sequence of MDR1 (P08183 whole entry, species assumed): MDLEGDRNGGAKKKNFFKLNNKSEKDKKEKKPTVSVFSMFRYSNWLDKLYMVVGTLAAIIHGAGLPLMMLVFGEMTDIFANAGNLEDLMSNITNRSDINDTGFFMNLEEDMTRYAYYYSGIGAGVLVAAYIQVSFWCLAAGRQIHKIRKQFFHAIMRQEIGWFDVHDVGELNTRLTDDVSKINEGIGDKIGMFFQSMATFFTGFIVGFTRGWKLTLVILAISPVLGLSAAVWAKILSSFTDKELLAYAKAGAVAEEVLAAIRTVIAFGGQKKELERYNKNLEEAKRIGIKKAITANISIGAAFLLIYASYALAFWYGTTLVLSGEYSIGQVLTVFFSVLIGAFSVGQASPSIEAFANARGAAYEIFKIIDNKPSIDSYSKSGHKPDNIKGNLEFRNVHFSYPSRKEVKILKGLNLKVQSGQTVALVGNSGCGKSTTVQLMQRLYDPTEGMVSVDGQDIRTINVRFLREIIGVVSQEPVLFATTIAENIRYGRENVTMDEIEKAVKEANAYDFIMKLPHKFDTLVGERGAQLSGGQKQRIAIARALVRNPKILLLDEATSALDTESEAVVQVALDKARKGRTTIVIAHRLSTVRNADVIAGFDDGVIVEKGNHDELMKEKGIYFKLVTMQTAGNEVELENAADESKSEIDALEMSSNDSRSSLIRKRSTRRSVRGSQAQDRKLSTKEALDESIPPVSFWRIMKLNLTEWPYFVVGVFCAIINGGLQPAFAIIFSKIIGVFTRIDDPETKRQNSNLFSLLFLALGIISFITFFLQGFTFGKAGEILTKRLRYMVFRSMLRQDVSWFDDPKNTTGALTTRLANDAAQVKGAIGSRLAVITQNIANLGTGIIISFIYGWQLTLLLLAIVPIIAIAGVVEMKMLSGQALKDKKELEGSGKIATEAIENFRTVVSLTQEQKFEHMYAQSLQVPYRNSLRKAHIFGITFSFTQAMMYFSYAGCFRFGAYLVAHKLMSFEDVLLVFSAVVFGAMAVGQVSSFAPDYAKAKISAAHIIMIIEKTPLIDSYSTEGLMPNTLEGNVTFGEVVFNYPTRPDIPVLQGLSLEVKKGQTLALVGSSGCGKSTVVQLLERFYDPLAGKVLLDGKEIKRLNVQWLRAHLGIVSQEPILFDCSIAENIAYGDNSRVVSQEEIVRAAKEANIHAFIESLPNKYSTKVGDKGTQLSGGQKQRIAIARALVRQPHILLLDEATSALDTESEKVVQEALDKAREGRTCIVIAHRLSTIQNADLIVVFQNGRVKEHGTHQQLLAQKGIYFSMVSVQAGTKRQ

## CC(C)(C)c1nc(-c2cccc(NS(=O)(=O)c3c(F)cccc3F)c2F)c(-c2ccnc(N)n2)s1 [dabrafenib]
[1]
  total brain-to-plasma ratio: 0.023
BCRP
  BCRP efflux ratio: 21.0
MDR1
  MDR1 efflux ratio: 11.4
